Active and inactive are the calls of the source.
Key:
Streptococcus [1] = test: Luminescence Microorganism-Based Dose Response Follow up to Identify Compounds Cytotoxic to Streptococcus. [Related pubchem assays: 1677 (Project Summary), 1915, 1914, 1902 (Retest at Dose), 1900 (Counter Screen), 1662 (Primary HTS)]; assay type: functional, organism-based
[2] = tested on: Streptococcus sp. 'group A'; test: Streptococcus pyogenes SK(-)GAS viability under kanamycin – luminescence, BacTiterGlo, confirmation, counter-screen for streptokinase expression inhibitor project, dose response (AID 1900); assay type: functional, organism-based
Streptokinase A = biological target: T1, Streptokinase A (Streptococcus pyogenes serotype M1, UniProt P10520); test: viability-normalized secreted streptokinase activity reduction – plasminogen activation absorbance, OD405, dose response (AID 1914); assay type: functional, Streptococcus pyogenes M1 GAS;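 note: secreted streptokinase activity via plasminogen activation per viability signal from cell pellet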
T1 sequence (P10520 whole entry): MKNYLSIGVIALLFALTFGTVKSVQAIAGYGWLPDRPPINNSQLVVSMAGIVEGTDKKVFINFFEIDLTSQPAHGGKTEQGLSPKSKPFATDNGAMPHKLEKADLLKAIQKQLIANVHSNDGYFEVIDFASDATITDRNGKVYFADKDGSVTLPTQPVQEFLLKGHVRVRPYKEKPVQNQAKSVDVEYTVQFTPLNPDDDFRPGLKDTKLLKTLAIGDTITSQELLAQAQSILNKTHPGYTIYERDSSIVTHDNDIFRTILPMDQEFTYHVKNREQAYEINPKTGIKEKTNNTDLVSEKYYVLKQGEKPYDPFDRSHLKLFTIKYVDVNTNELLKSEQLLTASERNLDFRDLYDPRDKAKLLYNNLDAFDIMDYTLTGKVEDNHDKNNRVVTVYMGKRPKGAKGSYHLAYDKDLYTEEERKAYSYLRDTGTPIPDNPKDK

Streptococcus [3] = test: GAS UMAA2166 growth inhibition – luminescence, BacTiterGlo, counter-screen for streptokinase expression inhibitor project, dose response (AID 1915); assay type: functional, organism-based;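 note: potency for reduction of bacterial viability or growth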
[4] = mRNA 3' processing disruption, beta-gal signal increase – luminescence, S. cerevisiae SKY197-pL101, dose response (AID 2525); assay type: functional, cell-based
Cytochrome P450 2C9 = Cytochrome P450 2C9 (Homo sapiens, UniProt P11712); conditions: Potency
[5] = viability loss in HeLa cells – cytotoxicity control for MgcRacGAP inhibitor project, dose response (AID 624300); assay type: functional
[6] = Counterscreen for IDE inhibitors: Luminescence-based cell-based high throughput dose response assay to identify compounds that are cytotoxic to HEK cells. [Related pubchem assays: 434962 (Primary screen (IDE inhibitors in singlicate)), 449730 (Counterscreen (Cytotoxicity in triplicate)), 435028 (Confirmation (IDE inhibitors in triplicate)) …; assay type: functional; conditions: HEK293
[7] = biological target: T2, Rac GTPase-activating protein 1 (Homo sapiens, UniProt Q9H0H5); test: blockers of MgcRacGAP-driven Rac1 GTP hydrolysis – biochemical, ADP Hunter fluorescence, primary and confirmatory, confirmation (AID 624330); assay type: functional
T2 sequence (Q9H0H5 whole entry): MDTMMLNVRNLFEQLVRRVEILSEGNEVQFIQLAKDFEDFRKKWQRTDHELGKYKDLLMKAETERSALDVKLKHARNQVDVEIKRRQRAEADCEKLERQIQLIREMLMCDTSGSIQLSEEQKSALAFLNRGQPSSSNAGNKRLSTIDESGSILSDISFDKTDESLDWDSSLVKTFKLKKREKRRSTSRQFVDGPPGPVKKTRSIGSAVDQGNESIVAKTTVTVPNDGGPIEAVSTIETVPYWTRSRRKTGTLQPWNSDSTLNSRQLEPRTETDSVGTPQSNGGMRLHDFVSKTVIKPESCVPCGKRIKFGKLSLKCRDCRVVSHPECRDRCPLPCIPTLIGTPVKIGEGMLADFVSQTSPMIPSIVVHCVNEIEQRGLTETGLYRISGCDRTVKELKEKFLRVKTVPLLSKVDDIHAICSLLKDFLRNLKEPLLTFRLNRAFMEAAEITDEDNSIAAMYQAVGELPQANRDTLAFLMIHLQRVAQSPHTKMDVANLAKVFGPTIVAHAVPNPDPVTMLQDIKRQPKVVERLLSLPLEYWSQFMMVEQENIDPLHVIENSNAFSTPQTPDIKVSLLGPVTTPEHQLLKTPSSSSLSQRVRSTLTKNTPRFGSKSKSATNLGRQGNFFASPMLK

Insulin-degrading enzyme = Insulin-degrading enzyme (Homo sapiens, UniProt P14735); test: Dose Response: Fluorescence polarization-based cell-based high throughput dose response assay for inhibitors of insulin-degrading enzyme (IDE). [Related pubchem assays: 434962 (Primary screen (IDE inhibitors in singlicate)), 449730 (Counterscreen (Cytotoxicity in triplicate)), 435028 (Confirmation (IDE inhibitors in triplicate)), 434984 (Summary …; assay type: functional
Sequence of Insulin-degrading enzyme (P14735 whole entry): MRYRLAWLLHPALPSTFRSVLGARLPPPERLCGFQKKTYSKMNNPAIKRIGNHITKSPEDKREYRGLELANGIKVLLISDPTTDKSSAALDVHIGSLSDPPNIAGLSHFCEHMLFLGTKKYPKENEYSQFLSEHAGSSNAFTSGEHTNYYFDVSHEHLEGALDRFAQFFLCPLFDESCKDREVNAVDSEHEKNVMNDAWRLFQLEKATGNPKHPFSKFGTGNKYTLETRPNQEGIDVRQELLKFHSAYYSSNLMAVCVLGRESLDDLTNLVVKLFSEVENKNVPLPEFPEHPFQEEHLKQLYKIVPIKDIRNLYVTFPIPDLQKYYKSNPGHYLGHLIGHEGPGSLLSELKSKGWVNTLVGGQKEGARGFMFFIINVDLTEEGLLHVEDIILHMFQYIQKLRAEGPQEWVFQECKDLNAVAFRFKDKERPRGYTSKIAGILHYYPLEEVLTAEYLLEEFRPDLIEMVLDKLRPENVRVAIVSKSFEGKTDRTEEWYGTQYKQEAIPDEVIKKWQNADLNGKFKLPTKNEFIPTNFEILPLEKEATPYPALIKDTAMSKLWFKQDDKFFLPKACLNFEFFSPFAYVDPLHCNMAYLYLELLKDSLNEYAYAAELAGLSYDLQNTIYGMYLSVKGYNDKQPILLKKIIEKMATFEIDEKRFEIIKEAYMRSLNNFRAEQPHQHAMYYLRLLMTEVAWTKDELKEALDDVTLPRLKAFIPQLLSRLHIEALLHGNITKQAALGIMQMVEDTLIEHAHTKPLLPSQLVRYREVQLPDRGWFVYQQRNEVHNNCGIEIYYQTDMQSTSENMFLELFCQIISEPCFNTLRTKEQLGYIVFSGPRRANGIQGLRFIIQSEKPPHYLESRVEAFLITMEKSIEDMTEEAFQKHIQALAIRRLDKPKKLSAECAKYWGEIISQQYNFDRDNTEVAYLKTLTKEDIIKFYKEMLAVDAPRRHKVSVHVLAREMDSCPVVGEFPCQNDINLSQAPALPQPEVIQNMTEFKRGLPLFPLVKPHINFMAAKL

Sequence of Cytochrome P450 2C9 (P11712 whole entry): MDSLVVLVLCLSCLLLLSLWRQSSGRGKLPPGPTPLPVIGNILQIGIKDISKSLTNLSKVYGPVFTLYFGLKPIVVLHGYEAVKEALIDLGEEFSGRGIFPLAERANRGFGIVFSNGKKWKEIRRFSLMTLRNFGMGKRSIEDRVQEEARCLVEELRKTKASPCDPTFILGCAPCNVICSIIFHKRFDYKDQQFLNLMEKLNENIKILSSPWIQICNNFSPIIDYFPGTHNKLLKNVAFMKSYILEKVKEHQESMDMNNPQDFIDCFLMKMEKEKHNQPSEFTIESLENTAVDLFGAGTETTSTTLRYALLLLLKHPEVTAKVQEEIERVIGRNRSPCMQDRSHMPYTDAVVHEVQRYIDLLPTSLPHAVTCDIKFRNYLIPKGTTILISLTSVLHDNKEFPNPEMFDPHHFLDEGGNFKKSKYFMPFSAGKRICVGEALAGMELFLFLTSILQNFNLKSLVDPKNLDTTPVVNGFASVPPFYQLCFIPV

Structure (SMILES): Cc1ccc(C(=O)n2c3ccccc3c3ccccc32)cc1
- EC50 (Streptococcus [1]): > 500 µM (not active)
- EC50 [2]: 21.6 µM (active)
- EC50 (Streptokinase A): 6.45 µM (active)
- EC50 (Streptococcus [3]): > 150 µM (not active)

Structure (SMILES): Cc1ccc2[nH]c(/C(C#N)=C/c3ccc([N+](=O)[O-])o3)nc2c1
- EC50 [4]: 4.03 µM (active)

Structure (SMILES): CCCCCC[C@H]1C(=O)O[C@@H](C)[C@H](NC(=O)c2cccc(NC=O)c2O)C(=O)O[C@@H](C)[C@@H]1OC(=O)CC(C)C
- AC50 (Cytochrome P450 2C9): 31.6 µM (inconclusive)

Structure (SMILES): Cc1cc(/C=C2\SC(=S)NC2=O)cc(C)c1O
- CC50 [5]: 100 µM (active)
- IC50 [6]: > 55.7 µM (not active)
- IC50 [7]: 25.8 µM (active)
- IC50 (Insulin-degrading enzyme): > 56 µM (not active)
